Measurements as given in patent US12590953B2, “Methods for screening cereblon modifying compounds” (CELGENE CORPORATION, priority 2018, dated 2026).
Entries after “also recorded” stand apart in the source; their conditions may differ.

What was measured:
[1] = target: T1, mouse SALL4 zinc fingers / human cereblon (Homo sapiens, UniProt Q96SW2); test: In vitro ubiquitination of mouse SALL4 zinc fingers by human cereblon; format: biochemical; conditions: thalidomide vs DMSO
T1 construct: Human cereblon-DDB1 (cereblon amino acids 40-442 and full length DDB1); the mouse SALL4 zinc finger amino acids 410-438 (orthologous to human ZF2); ZZ-domain-6xHis-thrombin site (N, cleaved yes); made in house; host or cells: SF9 insect cells (cereblon-DDB1, Cul4A-Rbx1); E. coli BL21 (DE3) Star (MBP-zinc finger)
Method: (§1) Full length human cereblon, full length mouse cereblon, and full length rabbit cereblon were co-expressed with full length human DDB1 in SF9 insect cells in ESF921 medium in the presence of 50 uM zinc acetate. Cells were resuspended in buffer containing 50 mM Tris-HCl pH 7.5, 500 mM NaCl, 10 mM imidazole, 10% glycerol, 2 mM TCEP, 1× Protease Inhibitor Cocktail (San Diego Bioscience), and 40,000 U Benzonase (Novagen), and sonicated for 30 s. Lysate was clarified by high speed spin at 30,000 rpm for 30 minutes, and clarified lysate was incubated with Ni-NTA affinity resin (Qiagen) for 1 hour. Complex was eluted with buffer containing 500 mM imidazole, and the ZZ-domain-6×His tag removed by thrombin cleavage (Enzyme Research) overnight, combined with dialysis in 10 mM imidazole buffer. Cleaved eluate was incubated with Ni-NTA affinity resin (Qiagen), and the flow-through diluted to 200 mM NaCl for further purification over a Sephacryl S-400 16/60 column (GE Healthcare) in buffer containing 10 mM HEPES pH 7.0, 240 mM NaCl, and 3 mM TECP.
(§2) Purified E1, E2, ubiquitin, Cul4A-Rbx1, cereblon-DDB1, and GSPT1 proteins were used to reconstitute the ubiquitination of MBP-fused WT and mutant proteins in vitro. Substrate proteins purified by maltose affinity resin (NEB) were incubated at an approximate concentration of 30 uM. […]

[2] = target: T2, mouse SALL4 zinc fingers / human cereblon (UniProt Q8BX22+Q96SW2); test: as above; format: biochemical; conditions: with thalidomide
T2 construct: Human cereblon-DDB1 (cereblon amino acids 40-442 and full length DDB1); the mouse SALL4 zinc finger amino acids 410-438 (orthologous to human ZF2); ZZ-domain-6xHis-thrombin site (N, cleaved yes); made in house; host or cells: SF9 insect cells (cereblon-DDB1, Cul4A-Rbx1); E. coli BL21 (DE3) Star (MBP-zinc finger)
Method: as §1, §2

[3] = target: ZFP91 (Mus musculus, UniProt Q62511); test: ZFP91 immunohistochemistry in wild-type mouse testis; format: in vivo; parameters: tissue Taconic; host or cells: wild-type mouse testis (C57Bl/6Ntac); conditions: wild type mice, 1000 mg/kg
Method: The SALL4 and ZFP91 protein levels were examined by immunohistochemistry in rabbit, wild-type mouse, and humanized cereblon mouse testes. […] HuCRBN Mice were treated for 7 days and testis were collected and examined by immunohistochemistry (n=3 animals per treatment group per species).
Rabbit embryos were stained for SALL4, and mouse testis were stained for SALL4 and ZFP91. Immunohistochemistry (IHC) was performed on the Bond-III automated slide stainer (Leica Microsystems, Buffalo Grove, Ill.) using the Bond Polymer Refine Detection system (Leica Microsystems, DS9800). Formalin fixed paraffin embedded (FFPE) tissues were sectioned at four micron thick and deparaffinized on the Bond-Max instrument. Antigen retrieval was performed with Epitope Retrieval 2 (ER2, pH 9.0) for 20 min at 100° C. The slides were blocked for endogenous peroxidase activity with Peroxide Block for 5 minutes at room temperature. Sections were then incubated with the mouse monoclonal anti-SALL4 EE-30 antibody (Santa Cruz, sc-101147) at a 1:100 dilution for 60 min at room temperature, or with the rabbit monoclonal anti-ZFP91 antibody (Celgene custom clone 122-8-6) at 0.25 ug/ml. For mouse testis, primary antibodies were incubated for 15 min at room temperature, and Post-Primary and horseradish peroxidase (HRP) labeled Polymer were incubated at the instrument's default conditions. […]

[4] = target: T3, ZFP91 cereblon-binding zinc finger (a.a. 395-423) / human cereblon (Homo sapiens, UniProt Q96JP5+Q96SW2); test: In vitro ubiquitination of ZFP91 zinc finger by human cereblon; format: biochemical; conditions: thalidomide vs DMSO
T3 construct: Human cereblon-DDB1 (cereblon amino acids 40-442 and full length DDB1); ZZ-domain-6xHis-thrombin site (N, cleaved yes); made in house; host or cells: SF9 insect cells (cereblon-DDB1, Cul4A-Rbx1); E. coli BL21 (DE3) Star (MBP-zinc finger)
Method: Glycine degron-containing zinc fingers are highlighted with stars. […] Ubiquitination reactions were separated by SDS-PAGE followed by anti-MBP western blot. […] Results in panels b and c are representative of 3 independent experiments.
Purified E1, E2, ubiquitin, Cul4A-Rbx1, cereblon-DDB1, and GSPT1 proteins were used to reconstitute the ubiquitination of MBP-fused WT and mutant proteins in vitro. Substrate proteins purified by maltose affinity resin (NEB) were incubated at an approximate concentration of 30 uM. Ubiquitination components described briefly: Human cereblon-DDB1 (cereblon amino acids 40-442 and full length DDB1) and 6×his-DDB1 alone were co-expressed in SF9 insect cells in the presence of 50 μM zinc acetate, and purified by nickel affinity resin (Qiagen), HiTrap ANX column ion exchange (GE Healthcare), and Sephacryl 400 16/60 size exclusion chromatography (GE healthcare). Human full length Cul4A and Rbx1 were co-expressed in SF9 insect cells and purified by nickel affinity resin and Superdex 200 16/60 size exclusion chromatography. Purified recombinant human Ube1 E1 (E-305), UbcH5a E2 (E2-616), and ubiquitin (U-100H) were purchased from R&D systems. […]

T2 sequence (Q96SW2 40-442): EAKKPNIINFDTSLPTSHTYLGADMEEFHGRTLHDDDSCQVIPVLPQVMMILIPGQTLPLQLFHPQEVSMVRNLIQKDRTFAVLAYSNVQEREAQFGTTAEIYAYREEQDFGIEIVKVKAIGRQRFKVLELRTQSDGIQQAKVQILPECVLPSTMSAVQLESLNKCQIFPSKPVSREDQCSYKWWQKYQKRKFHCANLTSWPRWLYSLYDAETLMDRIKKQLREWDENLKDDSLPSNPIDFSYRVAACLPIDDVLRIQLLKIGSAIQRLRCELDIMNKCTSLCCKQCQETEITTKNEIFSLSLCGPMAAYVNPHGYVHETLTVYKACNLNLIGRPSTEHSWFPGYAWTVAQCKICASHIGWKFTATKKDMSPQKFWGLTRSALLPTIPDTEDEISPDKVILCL
T2 sequence (Q16531 whole entry partner, the tested form may be a part): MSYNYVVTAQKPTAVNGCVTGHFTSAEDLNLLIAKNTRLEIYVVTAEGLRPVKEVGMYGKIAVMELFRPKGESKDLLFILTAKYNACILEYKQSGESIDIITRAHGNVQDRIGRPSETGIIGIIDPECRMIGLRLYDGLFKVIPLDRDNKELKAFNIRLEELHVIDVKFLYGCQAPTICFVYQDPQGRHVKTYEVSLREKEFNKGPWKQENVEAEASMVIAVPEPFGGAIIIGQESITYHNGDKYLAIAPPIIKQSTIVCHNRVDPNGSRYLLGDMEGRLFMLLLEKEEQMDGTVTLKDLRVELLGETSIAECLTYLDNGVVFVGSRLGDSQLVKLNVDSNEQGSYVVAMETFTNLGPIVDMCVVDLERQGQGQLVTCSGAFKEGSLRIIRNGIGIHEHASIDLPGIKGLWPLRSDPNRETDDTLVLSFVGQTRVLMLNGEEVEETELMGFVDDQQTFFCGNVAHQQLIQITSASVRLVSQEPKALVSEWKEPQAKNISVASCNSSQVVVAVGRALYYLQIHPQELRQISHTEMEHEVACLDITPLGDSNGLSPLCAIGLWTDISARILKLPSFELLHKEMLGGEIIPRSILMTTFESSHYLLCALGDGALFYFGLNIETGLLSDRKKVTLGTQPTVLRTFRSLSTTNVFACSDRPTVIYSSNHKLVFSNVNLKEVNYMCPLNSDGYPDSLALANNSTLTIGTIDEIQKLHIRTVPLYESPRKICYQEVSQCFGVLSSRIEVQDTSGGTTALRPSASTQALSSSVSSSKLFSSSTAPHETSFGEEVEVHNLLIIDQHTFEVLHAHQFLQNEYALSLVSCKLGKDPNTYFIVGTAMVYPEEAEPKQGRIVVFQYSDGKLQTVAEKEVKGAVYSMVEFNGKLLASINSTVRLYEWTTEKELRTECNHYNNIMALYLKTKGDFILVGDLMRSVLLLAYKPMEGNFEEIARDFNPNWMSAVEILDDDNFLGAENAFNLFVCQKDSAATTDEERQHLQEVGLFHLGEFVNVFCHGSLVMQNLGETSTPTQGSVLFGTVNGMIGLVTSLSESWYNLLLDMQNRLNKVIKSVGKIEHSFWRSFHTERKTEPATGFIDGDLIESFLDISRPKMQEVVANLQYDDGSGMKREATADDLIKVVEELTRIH
T2 sequence (Q8BX22 410-438): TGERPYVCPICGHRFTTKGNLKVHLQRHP
T1 sequence (Q96SW2 40-442): as the sequence (Q96SW2 40-442) above
T1 sequence (Q16531 whole entry partner, the tested form may be a part): as the sequence (Q16531 whole entry partner, the tested form may be a part) above
Sequence of ZFP91 (Q8C7D2 whole entry partner): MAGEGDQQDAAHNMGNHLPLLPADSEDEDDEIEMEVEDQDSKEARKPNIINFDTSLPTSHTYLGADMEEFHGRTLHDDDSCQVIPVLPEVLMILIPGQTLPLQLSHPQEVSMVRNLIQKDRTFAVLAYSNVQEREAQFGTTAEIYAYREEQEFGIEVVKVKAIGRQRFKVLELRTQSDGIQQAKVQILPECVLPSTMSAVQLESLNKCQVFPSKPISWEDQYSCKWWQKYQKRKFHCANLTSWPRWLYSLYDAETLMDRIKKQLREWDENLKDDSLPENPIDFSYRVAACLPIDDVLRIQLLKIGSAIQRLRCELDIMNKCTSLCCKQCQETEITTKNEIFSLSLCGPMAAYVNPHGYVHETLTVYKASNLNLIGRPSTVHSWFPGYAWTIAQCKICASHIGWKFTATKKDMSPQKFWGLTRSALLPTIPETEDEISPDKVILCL
Sequence of ZFP91 (Q3U1J4 whole entry partner): as the sequence (Q16531 whole entry partner, the tested form may be a part) above, with N418G, A495G, T745S, T1020A counted along it
Sequence of ZFP91 (Q62511 whole entry): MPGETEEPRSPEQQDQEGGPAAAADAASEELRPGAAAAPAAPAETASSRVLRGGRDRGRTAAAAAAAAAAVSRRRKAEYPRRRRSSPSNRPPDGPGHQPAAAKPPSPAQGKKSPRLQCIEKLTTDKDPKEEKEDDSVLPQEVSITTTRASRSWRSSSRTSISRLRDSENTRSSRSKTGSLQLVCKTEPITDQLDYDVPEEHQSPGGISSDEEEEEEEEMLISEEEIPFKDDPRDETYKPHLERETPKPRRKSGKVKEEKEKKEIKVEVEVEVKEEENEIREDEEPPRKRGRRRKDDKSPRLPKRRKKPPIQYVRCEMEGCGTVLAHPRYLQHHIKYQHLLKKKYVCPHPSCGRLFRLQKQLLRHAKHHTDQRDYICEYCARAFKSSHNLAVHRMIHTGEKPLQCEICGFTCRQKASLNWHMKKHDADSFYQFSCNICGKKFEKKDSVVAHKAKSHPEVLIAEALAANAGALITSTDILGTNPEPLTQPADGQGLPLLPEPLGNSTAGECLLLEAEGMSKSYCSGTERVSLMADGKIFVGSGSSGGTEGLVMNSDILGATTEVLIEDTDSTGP
T3 sequence (Q96SW2 40-442 limits assumed): as the sequence (Q96SW2 40-442) above
T3 sequence (Q96JP5 395-423 limits assumed): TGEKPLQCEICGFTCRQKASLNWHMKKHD
T3 sequence (Q16531 whole entry partner, the tested form may be a part): as the sequence (Q16531 whole entry partner, the tested form may be a part) above
T3 sequence (Q13619 whole entry partner, the tested form may be a part): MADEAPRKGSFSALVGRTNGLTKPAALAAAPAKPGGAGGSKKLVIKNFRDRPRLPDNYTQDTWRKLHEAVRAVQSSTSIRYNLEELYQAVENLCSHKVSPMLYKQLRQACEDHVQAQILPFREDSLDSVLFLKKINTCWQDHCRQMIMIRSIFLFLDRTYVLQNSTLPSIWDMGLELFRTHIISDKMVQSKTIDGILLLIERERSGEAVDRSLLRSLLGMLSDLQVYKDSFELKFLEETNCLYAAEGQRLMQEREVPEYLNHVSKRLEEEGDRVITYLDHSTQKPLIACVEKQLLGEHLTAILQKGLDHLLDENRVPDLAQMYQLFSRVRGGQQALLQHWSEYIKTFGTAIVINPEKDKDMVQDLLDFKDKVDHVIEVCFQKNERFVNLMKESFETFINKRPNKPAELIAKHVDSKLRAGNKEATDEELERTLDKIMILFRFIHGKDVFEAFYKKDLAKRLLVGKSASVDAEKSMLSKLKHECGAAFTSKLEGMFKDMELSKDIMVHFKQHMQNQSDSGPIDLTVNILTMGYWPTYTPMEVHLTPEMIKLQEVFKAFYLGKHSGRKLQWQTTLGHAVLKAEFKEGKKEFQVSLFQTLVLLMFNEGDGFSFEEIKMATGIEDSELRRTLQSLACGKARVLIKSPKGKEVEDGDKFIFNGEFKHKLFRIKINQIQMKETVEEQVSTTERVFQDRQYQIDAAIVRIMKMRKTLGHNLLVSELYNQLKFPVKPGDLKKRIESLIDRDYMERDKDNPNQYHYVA
T3 sequence (P62877 whole entry partner, the tested form may be a part): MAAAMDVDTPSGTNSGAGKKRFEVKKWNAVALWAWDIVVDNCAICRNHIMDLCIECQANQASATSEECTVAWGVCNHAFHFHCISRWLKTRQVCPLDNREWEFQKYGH

O=C1CCC(N2C(=O)c3ccccc3C2=O)C(=O)N1 (stereo not shown) [thalidomide]
Ubiquitination of all 4 glycine-motif mouse SALL4 zinc fingers by human cereblon [1]: none of them were efficiently ubiquitinated by either mouse cereblon or human cereblon; also recorded: not efficiently ubiquitinated by human or mouse cereblon | Ubiquitination of mouse SALL4 zinc finger (orthologous to human ZF2) by human cereblon [2]: not able to ubiquitinate the mouse SALL4 zinc finger; also recorded: not efficiently ubiquitinated by mouse or human cereblon | ZFP91 protein levels in testis [3]: exhibited no depletion of SALL4 or ZFP91; also recorded: did not cause significant degradation of either ZFP91 or SALL4 | Ubiquitination of ZFP91 zinc finger (a.a. 395-423) by human cereblon [4]: efficiently ubiquitinated by human cereblon in a thalidomide-dependent manner
